The OligoGym collection
Oligonucleotides are written 5' to 3', each unit as a sugar letter and its base; * is a phosphorothioate linkage, no mark a phosphodiester; rarer units and linkages stand in square brackets, end groups in braces. Plain capitals give the bases only. d = 2'-deoxy (DNA); r = 2'-OH (RNA)

These substances were tested against RHOQ (assay: reporter assay of Huesken 2005). Conditions: siRNA.
Note: test concentration or dose not given here.

Substance | normalised inhibition (eCFP-eYFP dual reporter) [%]
sense rArArArUrCrArArUrUrArArCrArUrArUrUrArGdTdT / antisense rCrUrArArUrArUrGrUrUrArArUrUrGrArUrUrUdAdT | 46.2
sense rArArArUrGrArCrArGrCrCrUrUrArArArUrGrCdTdT / antisense rGrCrArUrUrUrArArGrGrCrUrGrUrCrArUrUrUdTdC | 42.3
sense rArArArUrGrGrUrGrGrUrUrCrArCrArUrUrArAdTdT / antisense rUrUrArArUrGrUrGrArArCrCrArCrCrArUrUrUdCdT | 85.8
sense rArArUrArUrArArGrCrArUrCrArCrCrUrUrCrCdTdT / antisense rGrGrArArGrGrUrGrArUrGrCrUrUrArUrArUrUdTdT | 51.8

What follows are substances tested against UBE2H (assay: reporter assay of Huesken 2005). Conditions: siRNA.

Substance | normalised inhibition (eCFP-eYFP dual reporter) [%]
sense rArUrGrGrUrGrArCrGrCrUrGrCrArGrCrCrArUdTdT / antisense rArUrGrGrCrUrGrCrArGrCrGrUrCrArCrCrArUdTdG | 86.6
sense rArUrUrGrGrCrCrUrArUrCrCrUrArArCrCrCrCdTdT / antisense rGrGrGrGrUrUrArGrGrArUrArGrGrCrCrArArUdAdA | 36.2
sense rArUrUrUrGrArGrUrCrCrUrUrCrCrUrGrCrCrUdTdT / antisense rArGrGrCrArGrGrArArGrGrArCrUrCrArArArUdAdT | 48.2
sense rCrArArGrGrArArCrArCrCrArUrArUrGrArArGdTdT / antisense rCrUrUrCrArUrArUrGrGrUrGrUrUrCrCrUrUrGdTdG | 99.5
sense rCrArArUrArUrArUrUrUrGrArGrUrCrCrUrUrCdTdT / antisense rGrArArGrGrArCrUrCrArArArUrArUrArUrUrGdGdT | 84.2
sense rCrArGrArArArArUrUrArArArGrArGrUrArCrAdTdT / antisense rUrGrUrArCrUrCrUrUrUrArArUrUrUrUrCrUrGdCdT | 78.6
sense rCrArGrArArGrArArUrArCrArArGrCrArGrArAdTdT / antisense rUrUrCrUrGrCrUrUrGrUrArUrUrCrUrUrCrUrGdGdT | 77.7
sense rCrArGrCrCrArUrGrUrArCrCrUrCrCrArCrCrGdTdT / antisense rCrGrGrUrGrGrArGrGrUrArCrArUrGrGrCrUrGdCdA | 61.4
sense rCrArGrGrArArGrArGrGrGrUrArCrCrGrGrGrGdTdT / antisense rCrCrCrCrGrGrUrArCrCrCrUrCrUrUrCrCrUrGdTdT | 74.7
sense rCrArUrCrGrArGrArGrUrArArArCrArUrGrArGdTdT / antisense rCrUrCrArUrGrUrUrUrArCrUrCrUrCrGrArUrGdAdG | 70.2
sense rCrArUrGrArArUrArArArArUrUrUrUrCrCrArUdTdT / antisense rArUrGrGrArArArArUrUrUrUrArUrUrCrArUrGdAdA | 64
sense rCrCrArCrCrGrArCrCrArGrArArGrArArUrArCdTdT / antisense rGrUrArUrUrCrUrUrCrUrGrGrUrCrGrGrUrGrGdAdG | 82.5
sense rCrCrArGrArArGrArArUrArCrArArGrCrArGrAdTdT / antisense rUrCrUrGrCrUrUrGrUrArUrUrCrUrUrCrUrGrGdTdC | 104
sense rCrCrArUrArUrGrArArGrGrCrGrGrArGrUrArUdTdT / antisense rArUrArCrUrCrCrGrCrCrUrUrCrArUrArUrGrGdTdG | 102
sense rCrCrGrArCrCrArGrArArGrArArUrArCrArArGdTdT / antisense rCrUrUrGrUrArUrUrCrUrUrCrUrGrGrUrCrGrGdTdG | 86.4
sense rCrCrUrArArCrCrCrCrArUrArGrArUrCrCrUrCdTdT / antisense rGrArGrGrArUrCrUrArUrGrGrGrGrUrUrArGrGdAdT | 66.9
sense rCrGrArGrArGrUrArArArCrArUrGrArGrGrUrUdTdT / antisense rArArCrCrUrCrArUrGrUrUrUrArCrUrCrUrCrGdAdT | 98
sense rCrGrCrCrArCrGrGrArGrGrArGrGrCrGrCrUrGdTdT / antisense rCrArGrCrGrCrCrUrCrCrUrCrCrGrUrGrGrCrGdTdA | 66.8
sense rCrGrUrCrArGrGrArArCrUrGrUrGrUrGrUrCrUdTdT / antisense rArGrArCrArCrArCrArGrUrUrCrCrUrGrArCrGdCdT | 99.9
sense rCrUrArUrGrArUrCrUrUrArCrCrArArUrArUrAdTdT / antisense rUrArUrArUrUrGrGrUrArArGrArUrCrArUrArGdAdG | 110
sense rCrUrUrGrGrArCrArGrCrUrCrUrCrUrArUrGrAdTdT / antisense rUrCrArUrArGrArGrArGrCrUrGrUrCrCrArArGdTdT | 81
sense rGrArArCrUrGrUrGrUrGrUrCrUrArGrArUrGrUdTdT / antisense rArCrArUrCrUrArGrArCrArCrArCrArGrUrUrCdCdT | 98.4
sense rGrArArGrArArUrArCrArArGrCrArGrArArArAdTdT / antisense rUrUrUrUrCrUrGrCrUrUrGrUrArUrUrCrUrUrCdTdG | 95.1
sense rGrArArUrArCrArArGrCrArGrArArArArUrUrAdTdT / antisense rUrArArUrUrUrUrCrUrGrCrUrUrGrUrArUrUrCdTdT | 93.1

Substance | normalised inhibition (eCFP-eYFP dual reporter) [%]
sense rGrArArUrUrUrGrUrArGrUrGrArArGrUrUrUrUdTdT / antisense rArArArArCrUrUrCrArCrUrArCrArArArUrUrCdAdT | 96.7
sense rGrArCrGrCrUrGrCrArGrCrCrArUrGrUrArCrCdTdT / antisense rGrGrUrArCrArUrGrGrCrUrGrCrArGrCrGrUrCdAdC | 55.3
sense rGrArGrGrUrUrArCrGrArUrCrCrUrGrGrGrArGdTdT / antisense rCrUrCrCrCrArGrGrArUrCrGrUrArArCrCrUrCdAdT | 57.3
sense rGrArGrUrArCrArUrCrCrArGrArArArUrArCrGdTdT / antisense rCrGrUrArUrUrUrCrUrGrGrArUrGrUrArCrUrCdTdT | 77.6
sense rGrArGrUrArUrGrGrArArArGrUrUrArGrArGrUdTdT / antisense rArCrUrCrUrArArCrUrUrUrCrCrArUrArCrUrCdCdG | 83.6
sense rGrArUrArArArUrArCrCrCrUrUrUrCrArArArUdTdT / antisense rArUrUrUrGrArArArGrGrGrUrArUrUrUrArUrCdAdG | 102
sense rGrArUrCrUrUrArCrCrArArUrArUrArUrUrUrGdTdT / antisense rCrArArArUrArUrArUrUrGrGrUrArArGrArUrCdAdT | 78.3
sense rGrGrArGrGrArGrGrCrGrCrUrGrArArArGrArAdTdT / antisense rUrUrCrUrUrUrCrArGrCrGrCrCrUrCrCrUrCrCdGdT | 91.9
sense rGrGrCrGrCrUrGrArArArGrArArCrArGrGrArAdTdT / antisense rUrUrCrCrUrGrUrUrCrUrUrUrCrArGrCrGrCrCdTdC | 98.5
sense rGrGrGrUrArCrCrGrGrGrGrArCrArGrCrUrCrAdTdT / antisense rUrGrArGrCrUrGrUrCrCrCrCrGrGrUrArCrCrCdTdC | 71.9
sense rGrGrUrGrArCrGrCrUrGrCrArGrCrCrArUrGrUdTdT / antisense rArCrArUrGrGrCrUrGrCrArGrCrGrUrCrArCrCdAdT | 91
sense rGrUrCrUrArGrArUrGrUrArArUrUrArArUrCrAdTdT / antisense rUrGrArUrUrArArUrUrArCrArUrCrUrArGrArCdAdC | 106
sense rGrUrGrArArGrUrUrUrUrArUrGrGrArCrCrArCdTdT / antisense rGrUrGrGrUrCrCrArUrArArArArCrUrUrCrArCdTdA | 63.8
sense rGrUrGrGrArCrCrUrArCrCrUrGrArUrArArArUdTdT / antisense rArUrUrUrArUrCrArGrGrUrArGrGrUrCrCrArCdTdC | 77.9
sense rUrArCrCrArArUrArUrArUrUrUrGrArGrUrCrCdTdT / antisense rGrGrArCrUrCrArArArUrArUrArUrUrGrGrUrAdAdG | 48.6
sense rUrArGrArUrGrUrArArUrUrArArUrCrArArArCdTdT / antisense rGrUrUrUrGrArUrUrArArUrUrArCrArUrCrUrAdGdA | 46.5
sense rUrArUrArGrGrArUrUrCrArUrGrArArUrArArAdTdT / antisense rUrUrUrArUrUrCrArUrGrArArUrCrCrUrArUrAdGdA | 67.9
sense rUrArUrCrCrUrArArCrCrCrCrArUrArGrArUrCdTdT / antisense rGrArUrCrUrArUrGrGrGrGrUrUrArGrGrArUrAdGdG | 50.2
sense rUrCrArGrUrUrArUrUrGrGrCrCrUrArUrCrCrUdTdT / antisense rArGrGrArUrArGrGrCrCrArArUrArArCrUrGrAdGdG | 66.6
sense rUrCrArUrCrGrArGrArGrUrArArArCrArUrGrAdTdT / antisense rUrCrArUrGrUrUrUrArCrUrCrUrCrGrArUrGrAdGdC | 71.5
sense rUrGrArUrCrUrUrArCrCrArArUrArUrArUrUrUdTdT / antisense rArArArUrArUrArUrUrGrGrUrArArGrArUrCrAdTdA | 68.4
sense rUrGrUrArCrCrUrCrCrArCrCrGrArCrCrArGrAdTdT / antisense rUrCrUrGrGrUrCrGrGrUrGrGrArGrGrUrArCrAdTdG | 95.7
sense rUrGrUrArGrUrGrArArGrUrUrUrUrArUrGrGrAdTdT / antisense rUrCrCrArUrArArArArCrUrUrCrArCrUrArCrAdAdA | 75.6
sense rUrUrArUrGrGrArCrCrArCrArArGrGrArArCrAdTdT / antisense rUrGrUrUrCrCrUrUrGrUrGrGrUrCrCrArUrArAdAdA | 91.7
